From patent publication US11053243B2 (Merck Sharp & Dohme Corp., priority 2009, dated 2021) come the findings set out here.

Molecules are shown by their SMILES.

One assay deals with HCV genotype 1b replicon. Description: HCV replicon assay, genotype 1b. The class given is cell-based, hepatitis C virus. The note with it: Hepatitis C virus; genotype 1b replicon cells, 24 to 72 hours incubation, luciferase activity. As for the experimental part:
The HCV replicons and NS5A inhibitory activity of the present compounds may be tested using assays known in the art. HCV inhibitors, such as those described in the Examples herein have activities in genotype 1b, 2a and 1a replicon assays of from about 1 pM to about 1 μM. The assay is performed by incubating a replicon harboring cell-line in the presence of inhibitor for a set period of time and measuring the effect of the inhibitor on HCV replicon replication either directly by quantifying replicon RNA level, or indirectly by measuring enzymatic activity of a co-encoded reporter enzyme such as luciferase or β-lactamase. By performing a series of such measurements at different inhibitor concentrations, the effective inhibitory concentration of the inhibitor (EC50 or EC90) is determined. See Jan M. Vrolijk et al., A replicons-based bioassay for the measurement of interferons in patients with chronic hepatitis C, 110 J. VIROLOGICAL METHODS 201 (2003). Such assays may also be run in an automated format for high through-put screening. See Paul Zuck et al., A cell-based β-lactamase reporter gene assay for the identification of inhibitors of hepatitis C virus replication, 334 ANALYTICAL BIOCHEMISTRY 344 (2004).
Measurement of inhibition by compounds was performed using the HCV replicon system. Several different replicons encoding different HCV genotypes or mutations were used. In addition, potency measurements were made using different formats of the replicon assay, including different ways of measurements and different plating formats. See Jan M. Vrolijk et al., A replicons-based bioassay for the measurement of interferons in patients with chronic hepatitis C, 110 J. VIROLOGICAL METHODS 201 (2003); Steven S. Carroll et al., Inhibition of Hepatitis C Virus RNA Replication by 2′-Modified Nucleoside Analogs, 278(14) J. BIOLOGICAL CHEMISTRY 11979 (2003). However, the underlying principles are common to all of these determinations, and are outlined below.
Stable neomycin phosphotransferase encoding replicon-harboring cell lines were used, so all cell lines were maintained under G418 selection prior to the assay. In some cases, the cell lines encoded a luciferase:Neor fusion and could be assayed either directly by determination of RNA copy number, or indirectly through measurement of the luciferase activity.
To initiate an assay, replicon cells were plated in the presence of a dilution series of test compound in the absence of G418. Typically, the assays were performed in a 96-well plate format for manual operation, or a 384-well plate in an automated assay. Replicon cells and compound were incubated for 24 to 72 hours. At the end of the assay, cells are washed free of media and compound and then lysed. Luciferase activity was measured using a conventional luciferase assay. EC50 determinations were calculated as a percent of a DMSO control by fitting the data to a four parameter fit function.
The activity table below provides representative data illustrating observed activity against genotype 1b.
Background: In antiviral work, replicon cells carry a viral genome segment that copies itself.
Regarding `CC(C)(C)OC(=O)N[C@H](C(=O)N1CCC[C@H]1C(=O)Nc1ccc(-c2cc3cc(C#N)ccc3[nH]2)cc1)c1ccccc1` [Example 186, tert-butyl {(1S)-2-[(2S)-2-{[4-(5-cyano-1H-indol-2-yl)phenyl]carbamoyl}pyrrolidin-1-yl]-2-oxo-1-phenylethyl}carbamate], it took 0.015 nM to reach a half-maximal effect (EC50).
Still for that read-out and setting: with `COC(=O)N[C@H](C(=O)N1CCC[C@H]1c1ncc(-c2ccc3c(c2)OCn2c-3cc3cc(-c4cnc([C@@H]5CCCN5C(=O)[C@@H](NC(=O)OC)C(C)C)[nH]4)ccc32)[nH]1)C(C)C` [Example 189a, methyl [(2S)-1-{(2S)-2-[5-(10-{2-[(2S)-1-{(2S)-2-[(methoxycarbonyl)amino]-3-methylbutanoyl}pyrrolidin-2-yl]-1H-imidazol-5-yl}indolo[1,2-c] [1,3]benzoxazin-3-yl)-1H-imidazol-2-yl]pyrrolidin-1-yl}-3-methyl-1-oxobutan-2-yl]carbamate] the figure was 0.15 nM; with `COC(=O)N[C@H](C(=O)N1CCC[C@H]1c1ncc(-c2ccc(-c3cc4cc(-c5cnc([C@@H]6CCCN6C(=O)[C@@H](NC(=O)OC)C(C)C)[nH]5)ccc4o3)cc2)[nH]1)C(C)C` [Example 192, Methyl {(2S)-1-[(2S)-2-{5-[4-(5-{2-[(2S)-1-{(2S)-2-[(methoxy-carbonyl)amino]-3-methylbutanoyl}pyrrolidin-2-yl]-1H-imidazol-5-yl}-1-benzofuran-2-yl)phenyl]-1H-imidazol-2-yl}pyrrolidin-1-yl]-3-methyl-1-oxobutan-2-yl}carbamate], 0.002 nM; with `CN(C)[C@@H](C(=O)N1CCC[C@H]1C(=O)Nc1ccc2[nH]c(-c3ccc(-c4cnc([C@@H]5CCCN5C(=O)[C@@H](c5ccccc5)N(C)C)[nH]4)cc3)cc2c1)c1ccccc1` [Example 101, 1-[(2R)-2-(dimethylamino)-2-phenylacetyl]-N-{2-[4-(2-{(2S)-1-[(2R)-2-(dimethylamino)-2-phenylacetyl]pyrrolidin-2-yl}-1H-imidazol-5-yl)phenyl]-1H-indol-5-yl}-L-prolinamide], 0.5 nM.
On the same count and under the same terms, to `CCN(CC)[C@@H](C(=O)N1CCC[C@H]1C(=O)Nc1ccc2[nH]c(-c3ccc(-c4nnc([C@@H]5CCCN5C(=O)[C@@H](c5ccccc5)N(CC)CC)o4)cc3)cc2c1)c1ccccc1` [Example 191, 1-[(2R)-2-(diethylamino)-2-phenylacetyl]-N-{2-[4-(5-{(2S)-1-[(2R)-2-(diethylamino)-2-phenylacetyl]pyrrolidin-2-yl}-1,3,4-oxadiazol-2-yl)phenyl]-1H-indol-5-yl}-L-prolinamide] belongs 0.02 nM; to `CC(C)(C)OC(=O)N[C@@H](C(=O)N1CCC[C@H]1C(=O)Nc1ccc(-c2nc3cc(NC(=O)[C@@H]4CCCN4C(=O)[C@H](NC(=O)OC(C)(C)C)c4ccccc4)ccc3[nH]2)cc1)c1ccccc1` [Example 15, tert-butyl {(1R)-2-[(2S)-2-({4-[5-({[(2S)-1-{(2R)-2-[(tert-butoxycarbonyl)amino]-2-phenylacetyl}pyrrolidin-2-yl]carbonyl}amino)-1H-benzimidazol-2-yl]phenyl}carbamoyl)pyrrolidin-1-yl]-2-oxo-1-phenylethyl}carbamate], 0.045 nM; to `COC(=O)N[C@@H](C(=O)N1CCC[C@H]1c1ncc(-c2ccc(-c3nc4cc(-c5cnc([C@@H]6CCCN6C(=O)[C@H](NC(=O)OC)c6ccccc6)[nH]5)ccc4o3)cc2)[nH]1)c1ccccc1` [Example 213, Methyl {(1R)-2-[(2S)-2-{5-[4-(5-{2-[(2S)-1-{(2R)-2-[(methoxycarbonyl)amino]-2-phenylacetyl}pyrrolidin-2-yl]-1H-imidazol-5-yl}-1,3-benzoxazol-2-yl)phenyl]-1H-imidazol-2-yl}pyrrolidin-1-yl]-2-oxo-1-phenylethyl}carbamate], 0.009 nM.
On the same count and under the same terms, with `CC(=O)N1CCC[C@H]1c1ncc(-c2ccc(-c3cc4cc(NC(=O)[C@@H]5CCCN5C(=O)[C@H](NC(=O)OC(C)(C)C)c5ccccc5)ccc4[nH]3)cc2)[nH]1` [Example 105, tert-butyl{(1R)-2-[(2S)-2-{[2-(4-{2-[(2S)-1-acetylpyrrolidin-2-yl]-1H-imidazol-5-yl}phenyl)-1H-indol-5-yl]carbamoyl}pyrrolidin-1-yl]-2-oxo-1-phenylethyl}carbamate] the figure was 0.08 nM.
For `CCN(CC)[C@@H](C(=O)N1CCC[C@H]1C(=O)Nc1ccc(-c2cc3cc(NC(=O)[C@@H]4CCCN4C(=O)[C@@H](c4ccccc4)N(CC)CC)ccc3[nH]2)cc1)c1ccccc1` [Example 62, (2S)-1-[(2R)-2-(diethylamino)-2-phenylacetyl]-N-(4-{5-[({(2S)-1-[(2R)-2-(diethylamino)-2-phenylacetyl]pyrrolidin-2-yl}carbonyl)amino]-1H-indol-2-yl}phenyl)pyrrolidine-2-carboxamide], the EC50 (usually the concentration at which the effect is half-maximal) amounted to 0.067 nM.
Same read-out and setting: to `CC(C)(C)OC(=O)N[C@@H](C(=O)N1CCC[C@H]1C(=O)Nc1ccc2[nH]c(-c3ccc(NC(=O)[C@@H]4CCCN4C(=O)Cc4ccccc4)cc3)cc2c1)c1ccccc1` [Example 41] belongs 0.05 nM; to `CC(C)(C)OC(=O)N[C@H](C(=O)N1CCC[C@H]1C(=O)Nc1ccc(-c2nc3cc(NC(=O)[C@@H]4CCCN4C(=O)[C@@H](NC(=O)OC(C)(C)C)c4ccccc4)ccc3[nH]2)cc1)c1ccccc1` [Example 14, tert-butyl {(1S)-2-[(2S)-2-({4-[5-({[(2S)-1-{(2S)-2-[(tert-butoxycarbonyl)amino]-2-phenylacetyl}pyrrolidin-2-yl]carbonyl}amino)-1H-benzimidazol-2-yl]phenyl}carbamoyl)pyrrolidin-1-yl]-2-oxo-1-phenylethyl}carbamate], 10 nM; to `O=C(Nc1ccc(-c2cc3cc(NC(=O)[C@@H]4CCCN4C(=O)C(Cc4ccccc4)c4ccccc4)ccc3[nH]2)cc1)[C@@H]1CCCN1C(=O)C(Cc1ccccc1)c1ccccc1` (some centres unmarked) [Example 49], 0.072 nM.
`CC(=O)Nc1ccc(-c2[nH]c3ccc(NC(=O)[C@@H]4CCCN4C(=O)[C@@H](NC(=O)OC(C)(C)C)c4ccccc4)cc3c2Cl)cc1` [Example 131, tert-butyl {(1S)-2-[(2S)-2-({2-[4-(acetylamino)phenyl]-3-chloro-1H-indol-5-yl}carbamoyl)pyrrolidin-1-yl]-2-oxo-1-phenylethyl}carbamate]: it took 17 nM to reach a half-maximal effect (EC50). This EC50 lies about 240-fold higher than the previous one.
On the same count and under the same terms, with `CN(C)[C@@H](C(=O)N1CCC[C@H]1c1ncc(-c2ccc(-c3cc4cc(NC(=O)[C@@H]5CCCN5C(=O)[C@H](NC(=O)OC(C)(C)C)c5ccccc5)ccc4[nH]3)cc2)[nH]1)c1ccccc1` [Example 107, tert-butyl {(1R)-2-[(2S)-2-({2-[4-(2-{(2S)-1-[(2R)-2-(dimethylamino)-2-phenylacetyl]pyrrolidin-2-yl}-1H-imidazol-5-yl)phenyl]-1H-indol-5-yl}carbamoyl)pyrrolidin-1-yl]-2-oxo-1-phenylethyl}carbamate] the figure was 0.04 nM; with `CC(C)(C)OC(=O)N[C@@H](C(=O)N1CCC[C@H]1C(=O)Nc1ccc(-c2[nH]c3ccc(NC(=O)[C@@H]4CCCN4C(=O)[C@H](NC(=O)OC(C)(C)C)c4ccccc4)cc3c2C(=O)NC2CC2)cc1)c1ccccc1` [Example 158, tert-butyl {(1R)-2-[(2S)-2-({4-[5-({[(2S)-1-{(2R)-2-[(tert-butoxycarbonyl)amino]-2-phenylacetyl}pyrrolidin-2-yl]carbonyl}amino)-3-(cyclopropylcarbamoyl)-1H-indol-2-yl]phenyl}carbamoyl)pyrrolidin-1-yl]-2-oxo-1-phenylethyl}carbamate], 0.5 nM.
Same read-out and setting: to `CC(C)OC(=O)N[C@@H](C(=O)N1CCC[C@H]1C(=O)Nc1ccc(-c2[nH]c3ccc(NC(=O)[C@@H]4CCCN4C(=O)OC(C)(C)C)cc3c2F)cc1)c1ccccc1` [Example 144, tert-butyl (2S)-2-[(3-fluoro-2-{4-[({(2S)-1-[(2R)-2-phenyl-2-{[(propan-2-yloxy)carbonyl]amino}acetyl]pyrrolidin-2-yl}carbonyl)amino]phenyl}-1H-indol-5-yl)carbamoyl] pyrrolidine-1-carboxylate] belongs 0.036 nM.

The assay is the same for the next values; noted with them: genotype 1b replicon cells, 24 to 72 hours incubation, luciferase activity.
`CN(C)[C@@H](C(=O)N1CCC[C@H]1C(=O)Nc1ccc2[nH]c(-c3ccc(NC(=O)[C@@H]4CCCN4C(=O)[C@H]4CCCO4)cc3)cc2c1)c1ccccc1` [Example 72] displayed an EC50 of 0.17 nM.
